Where a name gives a salt, the structure may show the parent alone. Read-outs that look alike come from different tables or passages of the source.
How the values were obtained:
normal rabbits = assay: Intraocular pressure reduction in normal rabbits (Experiment 1); format: in vivo, male New Zealand white rabbits
Description: In the following Experiments 1 to 6, the test animals used were male New Zealand white rabbits, each weighing about 2.5 kg, raised in a room where the room temperature, relative humidity and lighting time were controlled to be 23° C, 60% and from 07:00 to 19:00, respectively. The animals were chosen from those where no abnormalities could be detected in their eyes by observation with the naked eye. They were given water freely but feed was restricted. The reduction in intraocular pressure (IOP) caused by the compounds of the present invention was investigated using groups of three male New Zealand white rabbits for each test. The compounds of the present invention were employed as solutions dissolved in a 50 mM phosphate buffer (pH 7.0) containing 0.4% w/v of sodium chloride which were adjusted to concentrations of about 1% w/v of the compound under test. Both eyes of each rabbit were anesthetized with eye drops containing an ophthalmic anesthetic (0.4% Benoxil, available from Santen Pharmaceutical Co., Ltd.), and then the IOP in each eye was measured by means of a PTG (Pneumatonograph: Alcon). The test substance was then instilled into either the left eye or the right eye (the eye to be tested) in an amount of 50 µℓ (in the case of 0.5% timolol, a known compound used for comparison, the amount was 30 µℓ). Sixty minutes after this instillation, the same amount of the same test compound was instilled into the same eye of each test animal. On the other hand, no instillation was effected into the other eye of each animal, which was used as a control eye. The IOP values of both eyes were measured 30,60,90,120,150 and 180 minutes, after the initial instillation of the test substance. The IOP reduction at each time of measurement caused by each test substance was calculated from the following equation: Intraocular pressure reduction (Ap, mmHg) = (Ic - It) - (Ic° - It°), • in which: • Ic the IOP of the control eye; • It is the IOP of the test eye; • Ic° the IOP of the control eye immediately before the initial instillation; and • It° is the IOP of the test eye immediately before the initial instillation. The average value of the IOP reduction at each time of measurement was calculated to obtain the intraocular reduction (Ap, mmHg) of the test substance. The results are reported as a ratio of the Δp of the test substance to that of the known substance, 0.5% timolol, which is, therefore, taken as 1.

Balb/3T3 cells [1] = settings: 10 min, 500 µM
Description: (§1) Balb/3T3 cells were incubated in Dulbecco's modified Eagle medium (glucose-rich) containing 100/o v/v bovine fetal serum. […] The sample was then dissolved in a buffer solution prepared by the further addition of 4 mM of calcium chloride to the buffer solution mentioned above. If the sample was difficult to dissolve in water, it was dissolved first in dimethyl sulphoxide (DMSO) and then the resulting solution was diluted with the buffer (the final concentration of DMSO was determined to be 0.1%). The cell suspension was preincubated at 30° C for 5 minutes, and 100 µℓ of this suspension were added to 100 µℓ of the sample solution to initiate enzymatic reaction. After incubation at 30° C for 10 minutes, 20 µℓ of 1 N aqueous hydrochloric acid was added to stop the reaction. The reaction mixture was then centrifuged at 3000 rpm for 3 minutes to obtain 100 µℓ of the supernatant. Cyclic 3',5'-adenosine monophosphate (cAMP) contained in the supernatant was quantitatively analyzed by radioimmunoassay using a Yamasa cAMP radioimmunoassay kit YSI-7701. The CAMP accumulating effect is reported as the ratio between the value measured using a test compound and that measured in the control.

Balb/3T3 cells [2] = assay: cAMP accumulation in Balb/3T3 cells, radioimmunoassay (Experiment 5)
Description: as §1

IOP = IOP lowering effect, area between IOP-time curves (Experiment 6); format: in vivo, male New Zealand white rabbits; settings: 25 µℓ three times every 2 minutes, ratio of areas between IOP lines
Description: In the following Experiments 1 to 6, the test animals used were male New Zealand white rabbits, each weighing about 2.5 kg, raised in a room where the room temperature, relative humidity and lighting time were controlled to be 23° C, 60% and from 07:00 to 19:00, respectively. The animals were chosen from those where no abnormalities could be detected in their eyes by observation with the naked eye. They were given water freely but feed was restricted.
The compound under test was dissolved in 100 mM of a sodium phosphate buffer solution (pH 7.2) containing a small amount of a 0.1 N aqueous solution of sodium hydroxide. In the case of timolol maleate, a 0.5% w/v eye lotion (Timoptol 0.5%, Santen Pharm. Co.) was used as such.
The cornea of the rabbit was anesthetized by the topical application of one or two drops of 0.4% oxybuprocaine hydrochloride. The IOP was measured two or three times for each eye and the mean value was calculated and is reported as the IOP value. After the IOP of the rabbit eye had been measured, 25 µℓ of the sample solution was applied to center of the cornea of one eye three times every 2 minutes. The other eye was treated with the vehicle alone in a similar way. The IOP of both eyes was then measured.
IOP values obtained from both eyes were plotted against times after application and the area enclosed by the two IOP lines (with and without the active compound) was calculated. The IOP lowering effect of each sample was expressed as a ratio of the area described above to that of 0.5^0/o timolol.

[3] = test system: water load-induced elevation of intraocular pressure; assay: Effect on water load-induced elevation of intraocular pressure, water load test (Experiment 2); format: in vivo, male New Zealand white rabbits; settings: 0.5% timolol maleate; water load test
Description: In the following Experiments 1 to 6, the test animals used were male New Zealand white rabbits, each weighing about 2.5 kg, raised in a room where the room temperature, relative humidity and lighting time were controlled to be 23° C, 60% and from 07:00 to 19:00, respectively. The animals were chosen from those where no abnormalities could be detected in their eyes by observation with the naked eye. They were given water freely but feed was restricted. The compound under test was dissolved in 100 mM of a sodium phosphate buffer solution (pH 7.2) containing a small amount of a 0.1 N aqueous solution of sodium hydroxide. In the case of timolol maleate, a 0.5% w/v eye lotion (Timoptol 0.5%, Santen Pharm. Co.) was used as such. Each rabbit was anesthetized with urethane (1.0 g/kg, i.v.), and the IOP values of both eyes were measured. Immediately thereafter, 50 µℓ of the sample solution was applied to one eye (test eye). To the other eye (control eye), 50 µℓ of the vehicle alone was applied. Ninety minutes after this application, the values of IOP were measured and then the water load test was performed as follows. Sixty ml/kg of tap water was given compulsorily per os to the anesthetized rabbit, and then the values of IOP for both eyes were measured with the passage of time. In this Experiment, the test compound was the compound of Example 19(b), i.e. 9'-(4-acetoxybenzyl) griseolate.

[4] = test system: Normal intraocular pressure; assay: Normal intraocular pressure lowering effect (Experiment 3); format: in vivo, male New Zealand white rabbits; settings: 0.5% timolol maleate applied to the eye
Description: In the following Experiments 1 to 6, the test animals used were male New Zealand white rabbits, each weighing about 2.5 kg, raised in a room where the room temperature, relative humidity and lighting time were controlled to be 23° C, 60% and from 07:00 to 19:00, respectively. The animals were chosen from those where no abnormalities could be detected in their eyes by observation with the naked eye. They were given water freely but feed was restricted. The compound under test was dissolved in 100 mM of a sodium phosphate buffer solution (pH 7.2) containing a small amount of a 0.1 N aqueous solution of sodium hydroxide. In the case of timolol maleate, a 0.5% w/v eye lotion (Timoptol 0.5%, Santen Pharm. Co.) was used as such. The corneal surface was anesthetized by the application of oxybuprocain hydrochloride (Benoxil 0.4% solution, Santen Pharm. Co.), and the IOP was measured by means of an Alcon Applanation Pneumatograph (Japan Alcon) in rabbits. The measurements were carried out 2 or 3 times for each eye, and the mean value was calculated and is regarded as the value of IOP. After determination of the IOP, 25 µℓ of a sample solution was applied to one eye (test eye) three times every two minutes, and the same volume of the vehicle alone was applied to the other eye (control eye). The values of IOP of both eyes were measured with the passage of time. In this Experiment, the test compound was the compound of Example 19(b).

[5] = drug concentration 1.0 %, 50 µℓ instilled at 0 and 60 min, average over 30-180 min, ratio to 0.5% timolol taken as 1

8'-Pivaloyloxyrnethyl griseolate [Example 10]
Intraocular pressure reduction relative to 0.5% timolol (normal rabbits; [5]): 1.08

9'-(1-Pivaloyloxyethyl) griseolate [Example 5]
Intraocular pressure reduction relative to 0.5% timolol (normal rabbits; [5]): 0.92

9'-(3,4-Diacetoxybenzyl) griseolate [Example 22(b)]
cAMP accumulating effect (Balb/3T3 cells [1]): 8.3

9'-(4-Acetoxy-3-methoxybenzyl) 7'-deoxygriseolate [Example 37]
cAMP accumulating effect (Balb/3T3 cells [2]; Concentration 500 µM, ratio of value with test compound to control, 30° C, 10 minutes): 16

9'-(4-Acetoxy-3-methoxybenzyl) griseolate [Example 26(b)]
IOP Lowering Effect (Ratio to 0.5% timolol) (IOP; Concentration 0.5 %): 3.29

9'-Pivaloyloxymethyl griseolate [Example 1]
Intraocular pressure reduction relative to 0.5% timolol (normal rabbits; [5]): 2.38

9'-[1-(Isopropoxycarbonyloxy)ethyl] griseolate [Example 2]
Intraocular pressure reduction relative to 0.5% timolol (normal rabbits; [5]): 1.24

Cc1oc(=O)oc1COC(=O)C12C=C(C(O)C(=O)O)OC1C(O)C(n1cnc3c(N)ncnc31)O2 (centres unmarked) [Example 3, 9'-(5-Methyl-2-oxo-1,3-dioxolen-4-yl)methyl griseolate]
Intraocular pressure reduction relative to 0.5% timolol (normal rabbits; [5]): 0.90

CCCC(=O)OC(C)OC(=O)C12C=C(C(O)C(=O)O)OC1C(O)C(n1cnc3c(N)ncnc31)O2 (centres unmarked) [Example 7, 9'-(1-Butyryloxyethyl) griseolate]
Intraocular pressure reduction relative to 0.5% timolol (normal rabbits; [5]): 0.79

CC(C)(C)C(=O)Oc1ccc(COC(=O)C23C=C(C(O)C(=O)O)OC2C(O)C(n2cnc4c(N)ncnc42)O3)cc1 (centres unmarked) [Example 21(b), 9'-(4-Pivaloyloxybenzyl) griseolate]
cAMP accumulating effect (Balb/3T3 cells [1]): 8.5

CC(C)C(=O)Oc1ccc(COC(=O)C2=CC3(C(O)C(=O)O)OC(n4cnc5c(N)ncnc54)C(O)C3O2)cc1 (centres unmarked) [Example 23(b), 9'-(4-lsobutyryloxybenzyl) griseolate]
IOP Lowering Effect (Ratio to 0.5% timolol) (IOP; Concentration 0.03 %): 1.62

CC(=O)Oc1ccccc1C=CCOC(=O)C12C=C(C(O)C(=O)O)OC1C(O)C(n1cnc3c(N)ncnc31)O2 (centres unmarked) [Example 31(b), 9'-(2-Acetoxycinnamyl) griseolate]
IOP Lowering Effect (Ratio to 0.5% timolol) (IOP; Concentration 0.5 %): 1.88

CC(=O)Oc1ccc(COC(=O)C(O)C2=CC3(C(=O)O)OC(n4cnc5c(N)ncnc54)C(O)C3O2)cc1 (centres unmarked) [Example 34, 8'-(4-Acetoxybenzyl) griseolate]
cAMP accumulating effect (Balb/3T3 cells [1]): 16

COc1cc(COC(=O)C(O)C2=CC3(C(=O)O)OC(n4cnc5c(N)ncnc54)C(O)C3O2)ccc1OC(C)=O (centres unmarked) [Example 35, 8'-(4-Acetoxy-3-methoxybenzyl) griseolate]
cAMP accumulating effect (Balb/3T3 cells [1]): 18

CC(=O)Oc1ccc(COC(=O)C23C=C(CC(=O)O)OC2C(O)C(n2cnc4c(N)ncnc42)O3)cc1 (centres unmarked) [Example 36, 9'-(4-Acetoxybenzyl) 7'-deoxygriseolate]
cAMP accumulating effect (Balb/3T3 cells [1]): 16

Nc1ncnc2c1ncn2[C@@H]1OC2=C[C@@](C(=O)O)(C(O)C(=O)O)O[C@H]2[C@H]1O (some centres unmarked) [Griseolic acid]
Intraocular pressure reduction relative to 0.5% timolol (normal rabbits; [5]): -0.12
fold induction at 500 µM (Balb/3T3 cells [2]; Mus musculus, BALB/3T3, 10 min, read-out: cAMP accumulating effect): 3.5

CC(C)(C)NC[C@H](O)COc1nsnc1N1CCOCC1 [timolol maleate, reference compound]
difference of IOP between the control eye and the test eye [3]: no significant difference
significant lowering of IOP [4]: only observed 2 hours after application

CC(C)(C)NC[C@H](O)COc1nsnc1N1CCOCC1 [timolol, reference compound]
Intraocular pressure reduction relative to 0.5% timolol (normal rabbits; drug concentration 0.5 %, 30 µℓ instilled at 0 and 60 min, reference, taken as 1): 1.0
